Measured values published in ChEMBL document CHEMBL1133937, “New 1-aryl-4-(biarylmethylene)piperazines as potential atypical antipsychotics sharing dopamine D(2)-receptor and serotonin 5-HT(1A)-receptor affinities” (Bioorg Med Chem Lett, 2001).
pKi: −log10 of the molar value.

Columns and labels:
[1] = target: T1, 5-hydroxytryptamine receptor 1A (Homo sapiens, UniProt P08908); assay: Binding affinity for 5-hydroxytryptamine 1A receptor determined using [3H]8-OH-DPAT as radioligand
T1 sequence (P08908 whole entry): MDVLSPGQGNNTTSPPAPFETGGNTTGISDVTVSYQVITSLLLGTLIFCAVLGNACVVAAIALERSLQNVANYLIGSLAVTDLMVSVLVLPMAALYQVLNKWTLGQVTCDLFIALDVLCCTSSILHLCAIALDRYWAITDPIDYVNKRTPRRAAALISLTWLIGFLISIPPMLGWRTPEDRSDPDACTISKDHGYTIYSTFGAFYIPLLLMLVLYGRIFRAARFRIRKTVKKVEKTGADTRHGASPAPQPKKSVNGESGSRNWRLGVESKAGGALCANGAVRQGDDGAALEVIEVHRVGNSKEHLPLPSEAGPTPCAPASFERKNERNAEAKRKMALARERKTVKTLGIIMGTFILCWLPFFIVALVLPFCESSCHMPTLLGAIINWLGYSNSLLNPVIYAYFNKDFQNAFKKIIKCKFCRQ

[2] = test system: Rattus norvegicus; assay: In vivo suppression of the conditioned avoidance response (CAR) in rats after po administration of the compound; type: functional
[3] = test system: Rattus norvegicus; assay: Tested for occurrence of lower lip retraction in rat after po administration of the compound; type: functional
[4] = test system: Mus musculus; assay: In vivo inhibition of the apomorphine-induced climbing behavior in mice; type: functional
[5] = test system: Rattus norvegicus; assay: In vivo suppression of the conditioned avoidance response (CAR) in rats after ip administration of the compound; type: functional

SMILES | pKi [1] | other results
Cc1cccc(-c2cccc(CN3CCN(c4cccc5[nH]c(=O)oc45)CC3)c2)c1 | 7.46 | 
O=C1COc2c(cccc2N2CCN(Cc3cccc(-c4ccccc4)c3)CC2)N1 | 7.31 | 
Cn1c(=O)oc2c(N3CCN(Cc4cccc(-c5ccccc5)c4)CC3)cccc21 | 6.89 | 
Oc1nc2cccc(N3CCN(Cc4cccc(-c5ccc(F)cc5)c4)CC3)c2o1 | 7.85 | 
Oc1nc2cccc(N3CCN(Cc4cc(-c5ccc(F)cc5)ccn4)CC3)c2o1 | 7.80 | ED50 [2]: < 10 mg/kg; ED50 [3]: > 30 mg/kg; ED50 [4]: 0.1 mg/kg
c1ccc(-c2cccc(CN3CCN(c4cccc5c4CCCN5)CC3)c2)cc1 | 7.07 | 
c1ccc(-c2cccc(CN3CCN(c4cccc5ccoc45)CC3)c2)cc1 | 7.42 | 
COc1cccc(-c2cccc(CN3CCN(c4cccc5[nH]c(=O)oc45)CC3)c2)c1 | 7.68 | 
Oc1nc2cccc(N3CCN(Cc4cccc(-c5ccsc5)c4)CC3)c2o1 | 7.77 | ED50 [5]: > 20 mg/kg; ED50 [3]: > 30 mg/kg; ED50 [4]: 0.2 mg/kg
c1ccc(-c2cccc(CN3CCN(c4cccc5c4OCCN5)CC3)c2)cc1 | 7.59 | 
Oc1nc2cccc(N3CCN(Cc4cccc(-c5ccc(F)cc5)n4)CC3)c2o1 | 6.70 | 
N#Cc1ccccc1-c1cccc(CN2CCN(c3cccc4nc(O)oc34)CC2)c1 | 7.49 | 
COc1ccccc1N1CCN(CCNC(=O)c2ccc(F)cc2)CC1 | 9.00 | 
O=c1[nH]c2cccc(N3CCN(Cc4ccnc(-c5ccc(F)cc5)c4)CC3)c2o1 | 7.68 | 
O=c1[nH]c2cccc(N3CCN(Cc4cccc(-c5cccs5)c4)CC3)c2o1 | 7.49 | 
Oc1nc2cccc(N3CCN(Cc4cncc(-c5ccccc5)c4)CC3)c2o1 | 8.11 | ED50 [2]: 0.4 mg/kg; ED50 [3]: 3 mg/kg; ED50 [4]: 0.1 mg/kg
O=c1[nH]c2cccc(N3CCN(Cc4cc(-c5ccccc5)ccc4F)CC3)c2o1 | 7.39 | 
c1ccc(-c2cccc(CN3CCN(c4cccc5c4OCCO5)CC3)c2)cc1 | 9.04 | 
Oc1nc2cccc(N3CCN(Cc4cccc(-c5cccc(Cl)c5)c4)CC3)c2o1 | 7.38 | 
O=C(NCCN1CCN(c2cccc3nc(O)oc23)CC1)c1ccc(F)cc1 | 8.10 | 
c1ccc(-c2cccc(CN3CCN(c4cccc5c4OCO5)CC3)c2)cc1 | 7.82 | 
N#Cc1cccc(-c2cccc(CN3CCN(c4cccc5nc(O)oc45)CC3)c2)c1 | 7.64 | 
Oc1nc2cccc(N3CCN(Cc4ccc(O)c(-c5ccccc5)c4)CC3)c2o1 | 8.12 | ED50 [5]: 20 mg/kg; ED50 [3]: > 30 mg/kg; ED50 [4]: 7 mg/kg
O=c1[nH]c2cccc(N3CCN(Cc4cccc(-c5ccccc5)c4)CC3)c2o1 [BIFEPRUNOX] | 8.03 | ED50 [2]: 0.8 mg/kg; ED50 [3]: 10 mg/kg; ED50 [4]: 0.1 mg/kg
CN1CCN(C2=Nc3cc(Cl)ccc3Nc3ccccc32)CC1 [CLOZAPINE] |  | ED50 [2]: 32 mg/kg; ED50 [4]: 22 mg/kg
Fc1ccc(-c2ccc(CN3CCN(c4cccc5ccoc45)CC3)[nH]2)cc1 [ELOPIPRAZOLE] | 8.82 | 
O=C(CCCN1CCC(O)(c2ccc(Cl)cc2)CC1)c1ccc(F)cc1 [HALOPERIDOL] |  | ED50 [2]: 0.3 mg/kg; ED50 [4]: 0.2 mg/kg
Cc1nc2n(c(=O)c1CCN1CCC(c3noc4cc(F)ccc34)CC1)CCCC2 [RISPERIDONE] |  | ED50 [2]: 1 mg/kg; ED50 [4]: 0.1 mg/kg
